In patent publication US20070213311A1, “Modulators of 11-beta hydroxyl steroid dehydrogenase type 1, pharmaceutical compositions thereof, and methods of using the same” (priority 2006, published 2007):

What was measured:
[1] = target: T1, full-length human 11βHSD1 (Homo sapiens, UniProt P28845); experiment: Enzymatic assay of 11βHSD1 (Scintillation Proximity Assay, clarified lysates of HEK-293 transfectants); type: biochemical; conditions: SPA, 25 nM 3H-cortisone, 400 μM NADPH, 37° C. for one hour
T1 construct: made in house; host or cells: HEK-293 transient transfectants; clarified lysate, not purified
T1 sequence (P28845 whole entry): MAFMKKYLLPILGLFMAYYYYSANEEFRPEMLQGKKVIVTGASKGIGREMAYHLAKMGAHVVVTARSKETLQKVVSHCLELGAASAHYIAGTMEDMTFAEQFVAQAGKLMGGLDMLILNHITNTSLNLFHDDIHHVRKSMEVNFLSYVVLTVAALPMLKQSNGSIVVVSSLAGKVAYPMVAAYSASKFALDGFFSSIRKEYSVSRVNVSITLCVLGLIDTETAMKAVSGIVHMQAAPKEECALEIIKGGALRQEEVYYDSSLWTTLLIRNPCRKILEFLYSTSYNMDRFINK
Procedure: Enzymatic Assay of 11βHSD1
All in vitro assays were performed with clarified lysates as the source of 11βHSD1 activity. HEK-293 transient transfectants expressing an epitope-tagged version of full-length human 11βHSD1 were harvested by centrifugation. Roughly 2×10^7 cells were resuspended in 40 mL of lysis buffer (25 mM Tris-HCl, pH 7.5, 0.1 M NaCl, 1 mM MgCl2 and 250 mM sucrose) and lysed in a microfluidizer. Lysates were clarified by centrifugation and the supernatants were aliquoted and frozen.
Inhibition of 11βHSD1 by test compounds was assessed in vitro by a Scintillation Proximity Assay (SPA). Dry test compounds were dissolved at 5 mM in DMSO. These were diluted in DMSO to suitable concentrations for the SPA assay. 0.8 μL of 2-fold serial dilutions of compounds were dotted on 384 well plates in DMSO such that 3 logs of compound concentration were covered. 20 μL of clarified lysate was added to each well. Reactions were initiated by addition of 20 μL of substrate-cofactor mix in assay buffer (25 mM Tris-HCl, pH 7.5, 0.1 M NaCl, 1 mM MgCl2) to final concentrations of 400 μM NADPH, 25 nM ^3H-cortisone and 0.007% Triton X-100. Plates were incubated at 37° C. for one hour. […] Quenched plates were incubated for a minimum of 30 minutes at RT prior to reading on a Topcount scintillation counter. […]

11βHSD1 in the eye = target: T2, 11βHSD1 in the eye (Homo sapiens, UniProt P28845); conditions: healthy volunteers, after seven days of carbenoxolone treatment; cited from earlier work
T2 construct: 11βHSD1 has been localized to NPE cells; host or cells: eye of healthy volunteers, in vivo
T2 sequence (P28845 whole entry): as above

Row | IC50 [1] [nM] | Compound | IOP was reduced by (11βHSD1 in the eye) [%]
1 | < 1000 | O=C1OC2(CCN(C(=O)C(O)c3ccc(Br)cc3F)C2)c2ccccc21 (centres unmarked) [Example 1, 1′-[(4-Bromo-2-fluorophenyl)(hydroxy)acetyl]-3H-spiro[2-benzofuran-1,3′-pyrrolidin]-3-one] | 
2 |  | CC1(C)[C@@H](OC(=O)CCC(=O)O)CC[C@]2(C)[C@H]3C(=O)C=C4[C@@H]5C[C@@](C)(C(=O)O)CC[C@]5(C)CC[C@@]4(C)[C@]3(C)CC[C@@H]12 [carbenoxolone] | 18
